Test results as given in patent US7935341B2, “Antibodies to complementary peptides of thrombin or portions thereof” (Orthologic Corp., priority 2005, dated 2011).
No end group written: not given here.

Biological target: T1, biotinylated thrombin ([B]-thrombin) (Homo sapiens, UniProt P00734)
T1 construct: present in blood plasma in the form of a precursor, pro-thrombin
Assay: Binding of biotinylated thrombin to complementary peptides coated on ELISA plates
Details: for specific binding of [B]-thrombin to the complementary peptide: peptide-coated ELISA plate, total minus nonspecific binding (excess unlabeled thrombin), HRP-avidin readout at 450 nm
Method: Complementary peptides (CPs) (AC-23, 23C53, C1053 and ND1053) were coated onto individual wells of 96 well plates by incubating in a 10 μg/ml solution of peptide in carbonate buffer (pH 9.5) or in Phosphate Buffered Saline (PBS) overnight at room temperature. The amino acid sequences of particular complementary peptides are described below and are depicted in FIG. 4. In particular, the following CPs were generated:
Prior to use, the wells were covered with blocking solution containing 0.1% bovine serum albumin (BSA) to reduce non-specific binding. The plates were rinsed and stored at 4° C. until used. To perform the binding experiments, the peptide-coated ELISA plates were blocked with 200 μl per well of blocking buffer (0.1% BSA (w/v) in PBS) for 90 minutes at room temperature. The plates were subsequently rinsed two times with distilled water. Total and nonspecific (NS) binding was determined, respectively, by adding 100 μl per well of 125 ng/ml of biotinylated thrombin ([B]-thrombin) alone or containing 12.5 μg/ml of unlabeled thrombin for 90 minutes at room temperature. The plates were then rinsed four times with PBSTT (PBS+0.5% v/v Tween 20 (polyoxyethylene sorbitan monolaurate)), and 100 μl of Avidin-HRP antibody (Becton Dickinson) diluted to 1:1000 was added per well for 120 minutes at room temperature. The plates were subsequently rinsed four times with PBSTT, and 100 μl of Turbo TMB substrate (Pierce) was added for 30 minutes at room temperature. The reaction was stopped by adding 100 μl per well of 1 N H2SO4 and the plates were read immediately at 450 nm using a Spectra Max Plus plate reader (Molecular Device). The specific binding of [B]-thrombin to the coated wells was determined by subtracting non-specific binding from total binding.
Specific thrombin binding was determined using indicated concentrations of biotinylated thrombin alone and with a 100-fold excess of unlabeled thrombin (to define nonspecific binding).

EC50 (increasing concentrations of [B]-thrombin on AC-23-coated wells, n=2±SD, read-out: half maximal binding of [B]-thrombin) [nM]	specific binding of [B]-thrombin to the complementary peptide	Sequence
4.8 ± 0.2	specifically bound	KGSPTVTFTGIPCFPFIRLVTS [AC-23]
–	specifically bound	KGSPTVTFTGIPSFPFIRLVTS (complementary peptides) [23C53]
–	not	TFTGIPSFPF (complementary peptides) [10C53]
